Reference: article PMC7217483, “Early correction of synaptic long-term depression improves abnormal anxiety-like behavior in adult GluN2B-C456Y-mutant mice” (PLoS Biology, 2020)

Columns and labels:
GluN2B [1] = target: T1, GluN2B (Mus musculus, UniProt P35439+Q01097, Q01097:C456Y, species not given); experiment: potentiation of recombinant NMDAR currents in Xenopus oocytes; format: cell-based
T1 construct: gene Grin2b; recombinant diheteromeric GluN1/GluN2B-C456Y receptor; with GluN1

GluN2B [2] = target: T2, GluN2B (Mus musculus, UniProt P35439+Q01097); experiment: as above; format: cell-based
T2 construct: gene Grin2b; recombinant diheteromeric GluN1/GluN2B receptor; with GluN1
T2 sequence (Q01097 27-1482, other chains not shown): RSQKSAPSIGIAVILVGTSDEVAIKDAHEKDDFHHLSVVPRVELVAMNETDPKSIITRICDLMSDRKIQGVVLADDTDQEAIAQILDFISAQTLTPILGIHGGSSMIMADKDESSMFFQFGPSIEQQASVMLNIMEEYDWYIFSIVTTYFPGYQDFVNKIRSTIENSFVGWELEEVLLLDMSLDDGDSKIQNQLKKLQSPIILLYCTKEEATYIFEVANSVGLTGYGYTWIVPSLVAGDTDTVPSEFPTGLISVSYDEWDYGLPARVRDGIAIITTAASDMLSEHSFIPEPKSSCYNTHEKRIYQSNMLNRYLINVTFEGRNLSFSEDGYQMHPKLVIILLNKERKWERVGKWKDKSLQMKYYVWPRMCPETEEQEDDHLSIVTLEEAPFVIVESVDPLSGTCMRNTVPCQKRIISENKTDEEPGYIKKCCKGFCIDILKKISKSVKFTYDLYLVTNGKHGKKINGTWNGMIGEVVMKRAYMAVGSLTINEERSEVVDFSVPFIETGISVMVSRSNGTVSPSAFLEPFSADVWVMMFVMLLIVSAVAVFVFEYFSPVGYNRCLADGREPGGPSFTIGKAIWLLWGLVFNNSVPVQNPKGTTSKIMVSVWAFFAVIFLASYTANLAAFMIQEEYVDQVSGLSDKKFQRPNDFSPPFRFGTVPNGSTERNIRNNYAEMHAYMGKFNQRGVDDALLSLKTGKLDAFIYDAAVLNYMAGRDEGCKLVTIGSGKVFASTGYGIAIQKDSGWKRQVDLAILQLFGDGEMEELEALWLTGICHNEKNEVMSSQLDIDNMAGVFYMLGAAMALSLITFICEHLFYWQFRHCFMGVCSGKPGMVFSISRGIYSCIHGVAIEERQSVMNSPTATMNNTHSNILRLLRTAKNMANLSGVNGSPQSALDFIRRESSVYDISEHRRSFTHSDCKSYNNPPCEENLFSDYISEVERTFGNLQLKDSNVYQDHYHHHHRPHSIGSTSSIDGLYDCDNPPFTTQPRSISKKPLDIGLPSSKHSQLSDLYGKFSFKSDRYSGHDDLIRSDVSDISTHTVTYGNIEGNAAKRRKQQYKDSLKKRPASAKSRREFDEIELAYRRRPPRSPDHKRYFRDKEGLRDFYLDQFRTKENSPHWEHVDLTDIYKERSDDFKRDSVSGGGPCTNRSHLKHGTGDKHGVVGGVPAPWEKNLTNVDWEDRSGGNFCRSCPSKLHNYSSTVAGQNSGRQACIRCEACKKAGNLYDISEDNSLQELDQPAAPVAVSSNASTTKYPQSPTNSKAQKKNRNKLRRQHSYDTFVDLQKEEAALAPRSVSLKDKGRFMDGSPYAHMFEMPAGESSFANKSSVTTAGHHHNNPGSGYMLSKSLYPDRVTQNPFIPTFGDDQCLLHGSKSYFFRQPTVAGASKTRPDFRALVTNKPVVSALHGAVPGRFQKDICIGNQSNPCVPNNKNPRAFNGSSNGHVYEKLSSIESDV

T1 sequence (Q01097 27-1482 C456Y, other chains not shown): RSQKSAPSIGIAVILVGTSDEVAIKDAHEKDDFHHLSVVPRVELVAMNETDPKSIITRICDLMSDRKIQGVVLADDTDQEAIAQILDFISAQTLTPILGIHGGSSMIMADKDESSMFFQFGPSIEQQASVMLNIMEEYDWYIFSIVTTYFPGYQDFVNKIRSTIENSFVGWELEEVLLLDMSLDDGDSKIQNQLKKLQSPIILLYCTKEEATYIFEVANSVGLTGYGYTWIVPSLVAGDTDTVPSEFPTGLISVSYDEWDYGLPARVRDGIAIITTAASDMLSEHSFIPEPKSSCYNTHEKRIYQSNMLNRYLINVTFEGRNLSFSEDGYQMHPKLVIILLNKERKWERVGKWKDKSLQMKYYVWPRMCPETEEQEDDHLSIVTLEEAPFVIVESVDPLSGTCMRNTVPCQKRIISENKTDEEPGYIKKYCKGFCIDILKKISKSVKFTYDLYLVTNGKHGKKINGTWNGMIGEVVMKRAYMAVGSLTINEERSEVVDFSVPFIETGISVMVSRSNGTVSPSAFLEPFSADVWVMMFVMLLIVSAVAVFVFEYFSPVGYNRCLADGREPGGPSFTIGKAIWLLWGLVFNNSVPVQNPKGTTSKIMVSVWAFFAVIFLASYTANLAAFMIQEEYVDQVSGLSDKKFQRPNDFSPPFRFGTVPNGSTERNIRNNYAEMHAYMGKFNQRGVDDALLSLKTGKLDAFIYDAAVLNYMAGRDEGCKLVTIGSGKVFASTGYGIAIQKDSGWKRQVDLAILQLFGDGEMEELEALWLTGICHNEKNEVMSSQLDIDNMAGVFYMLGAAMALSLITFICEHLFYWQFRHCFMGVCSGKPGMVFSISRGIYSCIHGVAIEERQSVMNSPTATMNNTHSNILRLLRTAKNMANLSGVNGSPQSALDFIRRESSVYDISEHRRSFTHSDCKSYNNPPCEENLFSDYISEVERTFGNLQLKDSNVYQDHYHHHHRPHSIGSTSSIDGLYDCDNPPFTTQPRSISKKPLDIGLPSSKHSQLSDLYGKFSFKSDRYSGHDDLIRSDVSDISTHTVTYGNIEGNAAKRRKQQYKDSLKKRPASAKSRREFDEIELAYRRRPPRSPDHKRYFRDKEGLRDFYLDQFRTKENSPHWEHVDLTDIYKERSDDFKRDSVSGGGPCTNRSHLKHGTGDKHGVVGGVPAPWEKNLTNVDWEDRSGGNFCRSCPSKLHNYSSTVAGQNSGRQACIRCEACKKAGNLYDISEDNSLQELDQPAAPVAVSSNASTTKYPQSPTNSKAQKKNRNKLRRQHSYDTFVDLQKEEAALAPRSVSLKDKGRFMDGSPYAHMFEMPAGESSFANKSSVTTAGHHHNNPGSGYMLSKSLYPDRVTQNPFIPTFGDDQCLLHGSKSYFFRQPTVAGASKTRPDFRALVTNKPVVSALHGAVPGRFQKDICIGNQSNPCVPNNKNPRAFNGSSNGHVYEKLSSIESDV

NCCCNCCCCNCCCN [spermine]
potentiation of recombinant NMDAR currents in Xenopus oocytes (GluN2B [1]): 2.83 spermine potentiation
potentiation of recombinant NMDAR currents in Xenopus oocytes (GluN2B [2]): 9.45 spermine potentiation
